# Laboratory results from patent US12668587B2, “Benzimidazolone GLP-1 receptor agonist and use thereof” (HANGZHOU ZHONGMEIHUADONG PHARMACEUTICAL CO., LTD., priority 2020, dated 2026).
# Read-outs that look alike come from different tables or passages of the source.
# Molecular target: Human GLP-1R (Homo sapiens, UniProt P43220)
# Test: GLP-1R agonist activity, HTRF cAMP detection in 293A GFP-GLP-1R cells
# Set-up: Emax: dose or concentration left out as unconfirmed
# Conditions: for Emax: 293A
# [1] = cAMP level, 293A GFP-GLP-1R cells, 30 min incubation, geometric mean
# Procedure: GLP-1R-mediated agonist activity was determined by cell-based assays using a homogeneous time-resolved fluorescence (i.e., HTRF)-based cAMP detection kit, which measures the level of cAMP in cells. The method was a competitive immunoassay. It enabled direct pharmacological characterization of compounds acting on Gs-coupled receptors in adherent or suspending cells.
# The standard curve of native cAMP or unlabeled cAMP produced by cells competed with d2-labeled cAMP red receptors to bind monoclonal anti-cAMP Eu3+ cryptate donors, and the specific signal was inversely proportional to the concentration of cAMP in standard or tested samples.
# Human GLP-1R encoding sequence (NCBI reference sequence NP_002053.3) was subcloned into pEGFP-N1 (tsingke), and the cell line stably expressing the receptor was isolated. The expression density of GLP-1R was confirmed by the expression of GFP observed under a fluorescence microscope.
# Cells were collected from a T25 tissue culture flask and centrifuged at room temperature at 1000 rpm for 5 minutes. The cell precipitates were then re-suspended in 1 mL of the stimulating buffer. 20 μL sample of cell suspension was counted on a counter STAR IC 1000 to determine the cell viability and the cell count per mL. The remaining cell suspension was then regulated with the stimulating buffer to deliver 2000 living cells per well using a multi-channel pipette. 5 μL of the cell suspension was added to each well of the plate which already contained the compound. The plate was sealed and incubated at 37° C. with 5% CO2 for 30 minutes.
# After 30 minutes of incubation, 5 μL of d2-labeled cAMP and 5 μL of anti-cAMP cryptate (both 1: 20 diluted in the cell lysis buffer) were added to each well of the plate. The plate was then incubated at room temperature for 60 minutes, and the changes of HTRF signal were read with Tecan Spark reader: absorbance values at 340 nm (excitation)/at 615 nm and 665 nm (emission). Raw data were converted into nM cAMP by interpolation from the cAMP standard curve, and the effect in percentage was determined relative to the saturated concentration of the complete agonist GLP-17˜37 (400 nM) contained in each plate. Determination of EC50 was performed based on the agonist dose-response curve, which was analyzed using a four-parameter logical dose-response equation with a curve fitting program.
# The test data presented the results in the form of a geometric mean (EC50s) based on the number of repetition times.
# Chain of Human GLP-1R (P43220 24-463): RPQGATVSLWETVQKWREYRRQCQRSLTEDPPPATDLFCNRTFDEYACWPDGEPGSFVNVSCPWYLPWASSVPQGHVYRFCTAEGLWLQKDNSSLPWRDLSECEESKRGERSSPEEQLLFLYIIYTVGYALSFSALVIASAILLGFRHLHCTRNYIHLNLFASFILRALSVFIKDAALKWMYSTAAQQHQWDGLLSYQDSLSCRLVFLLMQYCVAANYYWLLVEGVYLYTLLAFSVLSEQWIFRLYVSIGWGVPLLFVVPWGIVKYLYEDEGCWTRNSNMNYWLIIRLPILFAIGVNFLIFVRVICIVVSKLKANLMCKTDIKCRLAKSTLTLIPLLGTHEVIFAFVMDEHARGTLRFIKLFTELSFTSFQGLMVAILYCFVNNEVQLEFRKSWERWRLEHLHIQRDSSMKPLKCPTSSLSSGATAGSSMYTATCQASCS
SMILES,EC50,Emax,EC50 [1]
"CS(=O)(=O)c1ccc(COc2cccc(C3CCN(Cc4nc5ccc(C(=O)O)cc5n4C[C@@H]4CCO4)CC3)n2)c(F)c1 [Compound 2, (S)-2-((4-(6-((2-fluoro-4-(methylsulfonyl)benzyl)oxy)pyridin-2-yl)piperidin-1-yl)methyl)-1-(oxetan-2-methyl)-1H-benzo[d]imidazole-6-carboxylic acid]",> 1000 nM,29.8%,–
"NC(=O)c1ccc(COc2cccc(C3CCN(Cc4nc5ccc(C(=O)O)cc5n4C[C@@H]4CCO4)CC3)n2)c(F)c1 [Compound 3, (S)-2-((4-(6-((4-carbamoyl-2-fluorobenzyl)oxy)pyridin-2-yl)piperidin-1-yl)methyl)-1-(oxetan-2-ylmethyl)-1H-benzo[d]imidazole-6-carboxylic acid]",–,54.5%,75.9 nM
"CNC(=O)c1ccc(COc2cccc(C3CCN(Cc4nc5ccc(C(=O)O)cc5n4C[C@@H]4CCO4)CC3)n2)c(F)c1 [Compound 4, (S)-2-((4-(6-((2-fluoro-4-(methylcarbamoyl)benzyl)oxy)pyridin-2-yl)piperidin-1-yl)methyl)-1-(oxetan-2-ylmethyl)-1H-benzo[d]imidazole-6-carboxylic acid]",–,68.6%,179 nM
"CP(C)(=O)c1ccc(COc2cccc(C3CCN(Cc4nc5ccc(C(=O)O)cc5n4C[C@@H]4CCO4)CC3)n2)c(F)c1 [Compound 6, (S)-2-((4-(6-((4-(dimethylphosphoryl)-2-fluorobenzyl)oxy)pyridin-2-yl)piperidin-1-yl)methyl)-1-(oxetan-2-ylmethyl)-1H-benzo[d]imidazole-6-carboxylic acid]",> 1000 nM,7.07%,–
"O=C(O)c1ccc2nc(CN3CCC(c4cccc(OCc5ccc(C(=O)C6CC6)cc5F)n4)CC3)n(C[C@@H]3CCO3)c2c1 [Compound 7, (S)-2-((4-(6-((4-(cyclopropanecarbonyl)-2-fluorobenzyl)oxy)pyridin-2-yl)piperidin-1-yl)methyl)-1-(oxetan-2-ylmethyl)-1H-benzo[d]imidazole-6-carboxylic acid]",–,103%,0.75 nM
"O=C(O)c1ccc2nc(CN3CCC(c4cccc(OCc5ccc(C(=O)c6cccnc6)cc5F)n4)CC3)n(C[C@@H]3CCO3)c2c1 [Compound 8, (S)-2-((4-(6-((2-fluoro-4-nicotinoylbenzyl)oxy)pyridin-2-yl)piperidin-1-yl)methyl)-1-(oxetan-2-ylmethyl)-1H-benzo[d]imidazole-6-carboxylic acid]",–,88%,23.7 nM
"CC(=O)c1ccc(F)c(COc2cccc(C3CCN(Cc4nc5ccc(C(=O)O)cc5n4C[C@@H]4CCO4)CC3)n2)c1 [Compound 14, (S)-2-((4-(6-((5-acetyl-2-fluorobenzyl)oxy)pyridin-2-yl)piperidin-1-yl)methyl)-1-(oxetan-2-ylmethyl)-1H-benzo[d]imidazole-6-carboxylic acid]",705 nM,109%,–
"CON(C)C(=O)c1ccc(COc2cccc(C3CCN(Cc4nc5ccc(C(=O)O)cc5n4C[C@@H]4CCO4)CC3)n2)c(F)c1 [Compound 15, (S)-2-((4-(6-((2-fluoro-4-(methoxy(methyl)carbamoyl)benzyl)oxy)pyridin-2-yl)piperidin-1-yl)methyl)-1-(oxetan-2-ylmethyl)-1H-benzo[d]imidazole-6-carboxylic acid]",> 1000 nM,13.6%,–
"O=C(O)c1ccc2nc(CN3CCC(c4cccc(OCc5ccc(C(=O)C6CCOCC6)cc5F)n4)CC3)n(C[C@@H]3CCO3)c2c1 [Compound 19, (S)-2-((4-(6-((2-fluoro-4-(tetrahydro-2H-pyran-4-carbonyl)benzyl)oxy)pyridin-2-yl)piperidin-1-yl)methyl)-1-(oxetan-2-ylmethyl)-1H-benzo[d]imidazole-6-carboxylic acid]",–,129%,145 nM
"CN(C)C(=O)c1ccc(COc2cccc(C3CCN(Cc4nc5ccc(C(=O)O)cc5n4C[C@@H]4CCO4)CC3)n2)c(F)c1 [Compound 24, (S)-2-((4-(6-((4-(dimethylcarbamoyl)-2-fluorobenzyl)oxy)pyridin-2-yl)piperidin-1-yl)methyl)-1-(oxetan-2-ylmethyl)-1H-benzo[d]imidazole-6-carboxylic acid]",> 1000 nM,25.8%,–
CC(=O)c1ccc(COc2cccc(C3CCN(Cc4nc5ccc(C(=O)O)cc5n4C[C@@H]4CCO4)CC3)n2)c(Cl)c1 [Compound 27],0.13 nM,83.9%,–

# Continued by falling EC50, values first:
EC50,Emax,EC50 [1],SMILES
95.3 nM,91.8%,–,"CC(=O)c1ccc(COc2cccc(C3CCN(Cc4nc5ccc(C(=O)O)cc5n4C[C@@H]4CCO4)CC3)n2)c(OC(F)(F)F)c1 [Compound 21, (S)-2-((4-(6-((4-acetyl-2-(trifluoromethoxy)benzyl)oxy)pyridin-2-yl)piperidin-1-yl)methyl)-1-(oxetan-2-ylmethyl)-1H-benzo[d]imidazole-6-carboxylic acid]"
42.5 nM,85.5%,–,"CC(=O)c1ccc(COc2cccc(C3CCN(Cc4nc5ccc(C(=O)O)cc5n4C[C@@H]4CCO4)CC3)n2)c(C(F)(F)F)c1 [Compound 11, (S)-2-((4-(6-((4-acetyl-2-(trifluoromethyl)benzyl)oxy)pyridin-2-yl)piperidin-1-yl)methyl)-1-(oxetan-2-ylmethyl)-1H-benzo[d]imidazole-6-carboxylic acid]"
40 nM,88.5%,–,"CC(=O)c1cc(F)c(COc2cccc(C3CCN(Cc4nc5ccc(C(=O)O)cc5n4C[C@@H]4CCO4)CC3)n2)c(F)c1 [Compound 13, (S)-2-((4-(6-((4-acetyl-2,6-difluorobenzyl)oxy)pyridin-2-yl)piperidin-1-yl)methyl)-1-(oxetan-2-ylmethyl)-1H-benzo[d]imidazole-6-carboxylic acid]"
27 nM,83.4%,–,"CC(=O)c1ccc(COc2cccc(C3CCN(Cc4nc5ccc(C(=O)O)cc5n4C[C@@H]4CCO4)CC3)n2)nc1 [Compound 9, (S)-2-((4-(6-((5-acetylpyridin-2-yl)methoxy)pyridin-2-yl)piperidin-1-yl)methyl)-1-(oxetan-2-ylmethyl)-1H-benzo[d]imidazole-6-carboxylic acid]"
22.1 nM,113%,–,"CC(=O)c1cccc(COc2cccc(C3CCN(Cc4nc5ccc(C(=O)O)cc5n4C[C@@H]4CCO4)CC3)n2)c1 [Compound 18, (S)-2-((4-(6-((3-acetylbenzyl)oxy)pyridin-2-yl)piperidin-1-yl)methyl)-1-(oxetan-2-ylmethyl)-1H-benzo[d]imidazole-6-carboxylic acid]"
16.1 nM,108%,–,"COc1cc(COc2cccc(C3=CCN(Cc4nc5ccc(C(=O)O)cc5n4C[C@@H]4CCO4)CC3)n2)ccc1C(C)=O [Compound 23, (S)-2-((6-((4-acetyl-3-methoxybenzyl)oxy)-3′,6′-dihydro-[2,4′-bipyridin]-1′(2′H)-yl)methyl)-1-(oxetan-2-ylmethyl)-1H-benzo[d]imidazole-6-carboxylic acid]"
7.68 nM,104%,–,"CC(=O)c1cccc(COc2cccc(C3CCN(Cc4nc5ccc(C(=O)O)cc5n4C[C@@H]4CCO4)CC3)n2)c1F [Compound 17, (S)-2-((4-(6-((3-acetyl-2-fluorobenzyl)oxy)-pyridin-2-yl)piperidin-1-yl)methyl)-1-(oxetan-2-ylmethyl)-1H-benzo[d]imidazole-6-carboxylic acid]"
7.19 nM,88.2%,–,"CC(=O)c1ccc(COc2cccc(C3CCN(Cc4nc5ccc(C(=O)O)cc5n4C[C@@H]4CCO4)CC3)n2)cc1 [Compound 16, (S)-2-((4-(6-((4-acetylbenzyl)oxy)pyridin-2-yl)piperidin-1-yl)methyl)-1-(oxetan-2-ylmethyl)-1H-benzo[d]imidazole-6-carboxylic acid]"
4.57 nM,94.4%,–,"CC(=O)c1ccc(COc2cccc(C3CCN(Cc4nc5ccc(C(=O)O)cc5n4C[C@@H]4CCO4)CC3)n2)cc1F [Compound 26, (S)-2-((4-(6-((4-acetyl-3-fluorobenzyl)oxy)pyridin-2-yl)piperidin-1-yl)methyl)-1-(oxetan-2-ylmethyl)-1H-benzo[d]imidazole-6-carboxylic acid]"
1.67 nM,125%,–,"CC(=O)c1ccc(COc2cccc(C3CCN(Cc4nc5ccc(C(=O)O)cc5n4C[C@@H]4CCO4)CC3)n2)c(C)c1 [Compound 10, (S)-2-((4-(6-((4-acetyl-2-methylbenzyl)oxy)pyridin-2-yl)piperidin-1-yl)methyl)-1-(oxetan-2-ylmethyl)-1H-benzo[d]imidazole-6-carboxylic acid]"
0.85 nM,111%,–,"CC(=O)c1ccc(COc2cccc(C3CCN(Cc4nc5ccc(C(=O)O)cc5n4C[C@@H]4CCO4)CC3)n2)c(F)c1 [Compound 1, (S)-2-((4-(6-((4-acetyl-2-fluorobenzyl)oxy)pyridin-2-yl)piperidin-1-yl)methyl)-1-(oxetan-2-ylmethyl)-1H-benzo[d]imidazole-6-carboxylic acid]"
0.54 nM,81.3%,–,"CC(=O)c1ccc(COc2cccc(C3CCN(Cc4nc5ccc(C(=O)O)nc5n4C[C@@H]4CCO4)CC3)n2)c(F)c1 [Compound 5, (S)-2-((4-(6-((4-acetyl-2-fluorobenzyl)oxy)pyridin-2-yl)piperidin-1-yl)methyl)-3-(oxetan-2-ylmethyl)-3H-imidazo[4,5-b]pyridine-5-carboxylic acid]"
0.31 nM,120%,–,"COc1cc(C(=O)C2CC2)ccc1COc1cccc(C2CCN(Cc3nc4ccc(C(=O)O)cc4n3C[C@@H]3CCO3)CC2)n1 [Compound 20, (S)-2-((4-(6-((4-(cyclopropanecarbonyl)-2-methoxybenzyl)oxy)pyridin-2-yl)piperidin-1-yl)methyl)-1-(oxetan-2-ylmethyl)-1H-benzo[d]imidazole-6-carboxylic acid]"
0.25 nM,147%,–,"COc1cc(C(C)=O)ccc1COc1cccc(C2CCN(Cc3nc4ccc(C(=O)O)cc4n3C[C@@H]3CCO3)CC2)n1 [Compound 12, (S)-2-((4-(6-((4-acetyl-2-methoxybenzyl)oxy)pyridin-2-yl)piperidin-1-yl)methyl)-1-(oxetan-2-ylmethyl)-1H-benzo[d]imidazole-6-carboxylic acid]"
